Measurements published in US20090163586A1, “Bis-(Sulfonylamino) Derivatives in Therapy 205” (AstraZeneca AB, priority 2007, published 2009).
pIC50: −log10 of the molar value.

These compounds were tested against T1, human mPGES-1 (Homo sapiens, UniProt O14684) (assay: Microsomal prostaglandin E synthase biochemical assay). Conditions: microsome preparation containing human mPGES-1; PGH2 10.8 μM, GSH 2.5 mM, pH 6.8; PGE2 by HTRF; average of at least n=2.
T1 sequence (O14684 1-152): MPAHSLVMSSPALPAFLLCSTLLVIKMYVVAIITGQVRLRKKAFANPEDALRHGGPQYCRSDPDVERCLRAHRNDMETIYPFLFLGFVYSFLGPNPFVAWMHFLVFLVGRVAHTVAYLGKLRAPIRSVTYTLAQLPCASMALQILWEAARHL
Description: Compounds were tested as inhibitors of microsomal prostaglandin E synthase activity in microsomal prostaglandin E synthase assays and whole cell assays. These assays measure prostaglandin E2 (PGE2) synthesis which is taken as a measure of prostaglandin E synthase activity. Microsomal prostaglandin E synthase biochemical assays used microsomal prostaglandin E synthase-1 in microsomal preparations. The source of the microsomes can be for example interleukin-1β-stimulated human A549 cells (which express human mPGES-1) or Sf9 cells transfected with plasmids encoding human mPGES-1 cDNA. The whole blood assay [described by Patrignani, P. et al., Journal of Pharmacology and Experimental Therapeutics, 1994, vol. 271, pp 1705-1712] was used as the whole cell assay for testing the compounds. Whole blood provides a protein and cell rich milieu for the study of biochemical efficacy of anti-inflammatory compounds such as prostaglandin synthase inhibitors. To study the inhibitory activities of these compounds, human blood was stimulated with lipopolysaccharide (LPS) for typically 16 hours to induce mPGES-1 expression, after which the concentration of produced PGE2 was measured by competitive-immuno assay (homogeneous time-resolved fluorescence, HTRF) as read out for effectiveness against mPGES-1-dependent PGE2 production.
Microsomal Prostaglandin E Synthase Biochemical Assay
A solution of test compound was added to a diluted microsome preparation containing human mPGES-1 and pre-incubated for 15 minutes in potassium phosphate buffer pH 6.8 with cofactor glutathione (GSH). Corresponding solutions without test compound were used as positive controls, and corresponding solutions without test compound and without microsomes were used as negative controls. The enzymatic reaction was then started by addition of the substrate PGH2 in an organic solution (dry acetonitrile).
The typical reaction conditions of the enzymatic reaction were thus: Test compound: ranging from 60 μM to 0.002 μM, or zero in positive and negative controls; potassium phosphate buffer pH 6.8: 50 mM; GSH: 2.5 mM; mPGES-1-containing microsomes: 2 μg/mL (sample and positive controls) or 0 μg/mL (negative control); PGH2: 10.8 μM; Acetonitrile: 7.7% (v/v); DMSO: 0.6% (v/v). The reaction was stopped after one minute by adding an acidic solution (pH 1.9) of ferric chloride and citrate (final concentrations 7 mM and 47 mM respectively), by which the PGH2 was sequestered (the PGH2 is reduced to mainly 12-hydroxy heptadecatrineoic acid (12-HHT) which is not detected by the subsequent PGE2 detection step). The resulting solution was then pH neutralized by addition of potassium phosphate buffer, prior to diluting an aliquot of the resulting solution in a weak potassium phosphate buffer (50 mM, pH 6.8) containing 0.2% BSA (w/v). [Adapted from Jacobsson et al., Proc. Natl. Acad. Sci. USA, 1999, vol. 96, pp. 7220-7225]The PGE2 formed was quantified by use of a commercial HTRF based kit (catalogue #62PG2PEC or #62P2APEC from Cisbio International). 100% activity was defined as the PGE2 production in positive controls subtracted by the PGE2 production in the negative controls. IC50 values were then determined using standard procedures.
The potency is expressed as IC50 and the value indicated is an average of at least n=2.
`Cn1nc(-c2ccc(S(=O)(=O)Nc3ccccc3S(N)(=O)=O)s2)cc1C(F)(F)F` [Example 130, 5-(1-Methyl-5-trifluoromethyl-1H-pyrazol-3-yl)-thiophene-2-sulfonic acid (2-sulfamoyl-phenyl)-amide] was tested, and the pIC50 was 5.28. Compound `COc1ncc(-c2cccc(S(=O)(=O)Nc3ccncc3S(N)(=O)=O)c2)cc1Cl` [Example 203, 4-(3-(5-Chloro-6-methoxypyridin-3-yl)phenylsulfonamido)pyridine-3-sulfonamide] has a pIC50 of 5.68. Work on `NS(=O)(=O)c1ccccc1NS(=O)(=O)/C=C/c1ccccc1C(F)(F)F` [Example 104, 2-[[(E)-2-[2-(Trifluoromethyl)phenyl]ethenyl]sulfonylamino]benzenesulfonamide] yielded a pIC50 of 5.34. `NS(=O)(=O)c1c(NS(=O)(=O)CCc2ccc(Cl)c(Cl)c2)ccc2c1CCC2` [Example 236, 5-(2-(3,4-Dichlorophenyl)ethylsulfonamido)-2,3-dihydro-1H-indene-4-sulfonamide] showed a pIC50 of 5.34. Compound `NS(=O)(=O)c1ccc(F)cc1NS(=O)(=O)/C=C/c1ccc(C(F)(F)F)cc1` [Example 94, 4-Fluoro-2-[[(E)-2-[4-(trifluoromethyl)phenyl]ethenyl]sulfonylamino]-benzenesulfonamide] has a pIC50 of 6.19. For `N#Cc1ccc(/C=C/S(=O)(=O)Nc2cc(F)ccc2S(N)(=O)=O)cc1` [Example 30, 2-[[(E)-2-(4-Cyanophenyl)ethenyl]sulfonylamino]-4-fluoro-benzenesulfonamide], the pIC50 was 5.23. With `COc1ccccc1/C=C/S(=O)(=O)Nc1ccc(F)cc1S(N)(=O)=O` [Example 55, 5-Fluoro-2-[[(E)-2-(2-methoxyphenyl)ethenyl]sulfonylamino]benzenesulfonamide] the pIC50 was 6.44. `NS(=O)(=O)c1ccccc1NS(=O)(=O)c1cccc(Cl)c1Cl` [Example 149, 2,3-Dichloro-N-(2-sulfamoylphenyl)benzenesulfonamide] gave a pIC50 of 6.19. Work on `N#Cc1ccc(/C=C/S(=O)(=O)Nc2cccc(F)c2S(N)(=O)=O)cc1` [Example 32, 2-[[(E)-2-(4-Cyanophenyl)ethenyl]sulfonylamino]-6-fluoro-benzenesulfonamide] yielded a pIC50 of 5.29. `NS(=O)(=O)c1c(F)cccc1NS(=O)(=O)/C=C/c1cccc(C(F)(F)F)c1` [Example 66, 2-Fluoro-6-[[(E)-2-[3-(trifluoromethyl)phenyl]ethenyl]sulfonylamino]-benzenesulfonamide] showed a pIC50 of 5.21. For `Cc1ccc(NS(=O)(=O)/C=C/c2ccc(Br)cc2)c(S(N)(=O)=O)c1` [Example 190, (E)-2-(2-(4-Bromophenyl)vinylsulfonamido)-5-methylbenzenesulfonamide], the pIC50 was 6.17. `COc1cc(Cl)ccc1CCS(=O)(=O)Nc1cc(C)ccc1S(N)(=O)=O` [Example 201, 2-(2-(4-Chloro-2-methoxyphenyl)ethylsulfonamido)-4-methylbenzenesulfonamide] showed a pIC50 of 6.14. `COc1cc(Cl)ccc1CCS(=O)(=O)Nc1ccncc1S(N)(=O)=O` [Example 206, 4-(2-(4-Chloro-2-methoxyphenyl)ethylsulfonamido)pyridine-3-sulfonamide] gave a pIC50 of 5.04. `COc1cccc(-c2cccc(S(=O)(=O)Nc3ccccc3S(N)(=O)=O)c2)n1` [Example 162, 3-(6-Methoxypyridin-2-yl)-N-(2-sulfamoylphenyl)benzenesulfonamide] gave a pIC50 of 5.24. Work on `NS(=O)(=O)c1ccccc1NS(=O)(=O)c1cccc(-c2ccoc2)c1` [Example 119, 2-[[3-(3-Furyl)phenyl]sulfonylamino]benzenesulfonamide] yielded a pIC50 of 5.35. With `COc1ccccc1CCS(=O)(=O)Nc1cc(Cl)ccc1S(N)(=O)=O` [Example 227, 4-Chloro-2-(2-(2-methoxyphenyl)ethylsulfonamido)benzenesulfonamide] the pIC50 was 5.72. For `CC(Cc1ccccc1)S(=O)(=O)Nc1ccccc1S(N)(=O)=O` (centres unmarked) [Example 8, 2-(1-Phenylpropan-2-ylsulfonylamino)benzenesulfonamide], the pIC50 was 5.66. `C=C(CS(=O)(=O)Nc1ccccc1S(N)(=O)=O)c1ccc(Cl)cc1` [Example 87, 2-[2-(4-Chlorophenyl)prop-2-enylsulfonylamino]benzenesulfonamide] gave a pIC50 of 5.62. Compound `NS(=O)(=O)c1c(F)cccc1NS(=O)(=O)/C=C/c1ccc(-c2ccccc2)cc1` [Example 50, 2-Fluoro-6-[[(E)-2-(4-phenylphenyl)ethenyl]sulfonylamino]benzenesulfonamide] has a pIC50 of 6.89. Compound `Cc1ccc(NS(=O)(=O)c2cccc(Cl)c2Cl)c(S(N)(=O)=O)c1` [Example 154, 2-(2,3-Dichloro-benzenesulfonylamino)-5-methyl-benzenesulfonamide] has a pIC50 of 5.03. Work on `NS(=O)(=O)c1cc(F)ccc1NS(=O)(=O)/C=C/c1ccc2ccccc2c1` [Example 99, 5-Fluoro-2-[[(E)-2-naphthalen-2-ylethenyl]sulfonylamino]benzenesulfonamide] yielded a pIC50 of 6.54. Compound `NS(=O)(=O)c1ccccc1NS(=O)(=O)c1ccc(OCc2ccccc2)cc1` [Example 127, 4-Phenylmethoxy-N-(2-sulfamoylphenyl)benzenesulfonamide] has a pIC50 of 5.29. `Cc1ccc(/C=C/S(=O)(=O)Nc2ccccc2S(N)(=O)=O)cc1` [Example 82, 2-[[(E)-2-(4-Methylphenyl)ethenyl]sulfonylamino]benzenesulfonamide] gave a pIC50 of 5.14. With `COc1ccc(Br)cc1/C=C/S(=O)(=O)Nc1cccc(F)c1S(N)(=O)=O` [Example 28, 2-[[(E)-2-(5-Bromo-2-methoxy-phenyl)ethenyl]sulfonylamino]-6-fluoro-benzenesulfonamide] the pIC50 was 6.54. With `NS(=O)(=O)c1ccccc1NS(=O)(=O)c1ccc2c(c1)CCCC2` [Example 126] the pIC50 was 5.92. In the case of `CC(C)Oc1ccccc1/C=C/S(=O)(=O)Nc1ccccc1S(N)(=O)=O` [Example 219, (E)-2-(2-(2-isopropoxyphenyl)vinylsulfonamido)benzenesulfonamide], the pIC50 was 6.02. With `NS(=O)(=O)c1cc(OCc2ccccn2)ccc1NS(=O)(=O)CCc1ccc(Cl)cc1` [Example 46, 2-[2-(4-Chlorophenyl)ethylsulfonylamino]-5-(pyridin-2-ylmethoxy)benzenesulfonamide] the pIC50 was 5.96. In the case of `COc1ccc(Br)cc1/C=C/S(=O)(=O)Nc1ccc(F)cc1S(N)(=O)=O` [Example 27, 2-[[(E)-2-(5-Bromo-2-methoxy-phenyl)ethenyl]sulfonylamino]-5-fluoro-benzenesulfonamide], the pIC50 was 6.57. Compound `N#Cc1ccc(/C=C/S(=O)(=O)Nc2ccc(F)cc2S(N)(=O)=O)cc1` [Example 31, 2-[[(E)-2-(4-Cyanophenyl)ethenyl]sulfonylamino]-5-fluoro-benzenesulfonamide] has a pIC50 of 5.24. For `NS(=O)(=O)c1ccc(F)cc1NS(=O)(=O)/C=C/c1ccc2ccccc2c1` [Example 92, 4-Fluoro-2-[[(E)-2-naphthalen-2-ylethenyl]sulfonylamino]benzenesulfonamide], the pIC50 was 7.04. With `NS(=O)(=O)c1ccccc1NS(=O)(=O)CCc1ccc(Br)cc1` [Example 107, 2-[(E)-2-(4-Bromophenyl)ethylsulfonylamino]benzenesulfonamide] the pIC50 was 6.85. `CSc1ccccc1/C=C/S(=O)(=O)Nc1ccccc1S(N)(=O)=O` [Example 220, (E)-2-(2-(2-(methylthio)phenyl)vinylsulfonamido)benzenesulfonamide] gave a pIC50 of 6.57.
